Experimental data published in patent US20230310436A1, “COMBINATION THERAPY FOR CANCERS WITH KRAS MUTATION” (COTHERA BIOSCIENCE, INC., priority 2019, published 2023).

Legend:
Format in all cases: cell-based
[1] = test system: KRAS^G12C-NSCLC H23 cell line; assay: Ex vivo Edu proliferation test (MI, GI %), H23; conditions: Table 2a; 7 days; uM: osimertinib 0.5, afatinib 0.2, cobimetinib 0.4, trametinib 0.02, palbociclib 0.15, ribociclib 5
Experimental: (§1) For ex vivo drug testing, the cells were exposed to a combination of drugs or single drugs for 4 days or 7 days. Following exposure with drug, 1,000-5,000 cells were labeled with 5-ethynyl-2′-deoxyuridine (Edu) to assess the tumor cell proliferation rates. The labeling lasted 24 hours in the presence of drug exposure. In the control group, epithelial tumor cells received no drug exposure with media change (with 0.1% DMSO), but were similarly labeled with Edu. The labeled cells were fixed and blocked with 3% BSA and 0.5% Triton X-100 for 2 hours at room temperature, followed by staining with Hoechst 33342 and EpCAM antibody (1:4000) in PBS solution containing 0.5% Triton X-100 overnight at 4° C. Subsequently, the cells were rinsed with PBST then incubated with Alexa Fluor® 647 conjugated goat-antimouse secondary antibody for 30 minutes at room temperature.
(§2) The incorporated Edu was detected by Click-iT reaction where fixed cells were incubated with a reaction mixture containing 1× Click-iT Edu reaction buffer, CuSO4, and azide-conjugated Alexa Fluor dye in the dark. The stained cells were washed with PBS two times before image acquisition and analysis.
(§3) For image acquisition and analysis, the stained tumor cells were imaged by a high-content screening (HCS) platform (Thermo Scientific CellomicsArrayScanXTi HCS reader). The 10× objective was used to collect images. Twenty-five fields were imaged for each well for the analysis. From the images three fluorescent signals were obtained from the HCS reader. Blue fluorescent signals recorded nucleus signals stained with Hoechst 33342, green fluorescent signal detected the Edu incorporated in newly synthesized DNA, and red fluorescent signal detected the EpCAM positive epithelial cells population.
(§4) The MI (Maximum Inhibition Index) was calculated using the EpCAM and Edu positive readout (Tables 1-4). MI=Edu positive cells in control/Edu positive cells in treatment. MI4 indicates an MI value after 4 days of treatment and MI7 indicates an MI values after 7 days of treatment. The MI and growth inhibition rate (GI %) values for KRAS^G12A-NSCLC (H1573 and H2009), KRAS^G12C-NSCLC (H358, H23 and H2030), KRAS^G12V-NSCLC (H2291 and H2444) and KRAS^G12D-NSCLC (H1588 and SK-LU-1) cell lines are shown in Tables 1-4, respectively. GI % is calculated as GI %=(1−1/MI)*100%.

[2] = test system: KRAS^G12D-NSCLC SK-LU-1 cell line; assay: Ex vivo Edu proliferation test (MI, GI %), SK-LU-1; conditions: Table 4; 4 days; uM: osimertinib 0.5, afatinib 0.2, cobimetinib 0.4, trametinib 0.02, TAK-733 0.18, palbociclib 0.15, ribociclib 5
Experimental: as §1, §2, §3, §4

[3] = test system: KRAS^G12C-NSCLC H358 cell line; assay: Ex vivo Edu proliferation test (MI, GI %), H358; conditions: Table 2a; 7 days; uM: osimertinib 0.5, afatinib 0.2, cobimetinib 0.4, trametinib 0.02, palbociclib 0.15, ribociclib 5
Experimental: as §1, §2, §3, §4

[4] = test system: KRAS^G12A-NSCLC H1573 cell line; assay: Ex vivo Edu proliferation test (MI, GI %), H1573; conditions: Table 1; 4 days; uM: osimertinib 0.5, afatinib 0.2, cobimetinib 0.4, trametinib 0.02, TAK-733 0.18, palbociclib 0.15, ribociclib 5
Experimental: as §1, §2, §3
The MI (Maximum Inhibition Index) was calculated using the EpCAM and Edu positive readout (Tables 1-4). MI=Edu positive cells in control/Edu positive cells in treatment. MI4 indicates an MI value after 4 days of treatment and MI7 indicates an MI values after 7 days of treatment. […] GI % is calculated as GI %=(1−1/MI)*100%.

[5] = test system: KRAS^G12V-NSCLC H2444 cell line; assay: Ex vivo Edu proliferation test (MI, GI %), H2444; conditions: Table 3; 4 days; uM: osimertinib 0.5, afatinib 0.2, trametinib 0.02, TAK-733 0.18, palbociclib 0.15, ribociclib 5
Experimental: as §1, §2, §3, §4

[6] = test system: KRAS^G12D-NSCLC H1588 cell line; assay: Ex vivo Edu proliferation test (MI, GI %), H1588; conditions: Table 4; 4 days; uM: osimertinib 0.5, afatinib 0.2, cobimetinib 0.4, trametinib 0.02, TAK-733 0.18, palbociclib 0.15, ribociclib 5
Experimental: as §1, §2, §3, §4

[7] = test system: KRAS^G12A-NSCLC H2009 cell line; assay: Ex vivo Edu proliferation test (MI, GI %), H2009; conditions: Table 1; 4 days; uM: osimertinib 0.5, afatinib 0.2, cobimetinib 0.4, trametinib 0.02, TAK-733 0.18, palbociclib 0.15, ribociclib 5
Experimental: as §1, §2, §3, §4

[8] = test system: KRAS^G12C-NSCLC H2030 cell line; assay: Ex vivo Edu proliferation test (MI, GI %), H2030; conditions: Table 2a; 7 days; uM: osimertinib 0.5, afatinib 0.2, cobimetinib 0.4, trametinib 0.02, palbociclib 0.15, ribociclib 5
Experimental: as §1, §2, §3, §4

[9] = test system: KRAS^G12V-NSCLC H2291 cell line; assay: Ex vivo Edu proliferation test (MI, GI %), H2291; conditions: Table 3; 7 days; uM: osimertinib 0.5, afatinib 0.2, trametinib 0.02, TAK-733 0.18, palbociclib 0.15, ribociclib 5
Experimental: as §1, §2, §3, §4

Structure (SMILES): CC(=O)Nc1cccc(-n2c(=O)n(C3CC3)c(=O)c3c(Nc4ccc(I)cc4F)n(C)c(=O)c(C)c32)c1 [Trametinib, trametinib]
- GI % (Growth Inhibition Rate), H23 [1]: 1.20%
- MI 7 (Maximum Inhibition Index), H23 [1]: 1.01
- GI % (Growth Inhibition Rate), SK-LU-1 [2]: 47.99%
- MI 4 (Maximum Inhibition Index), SK-LU-1 [2]: 1.92
- GI % (Growth Inhibition Rate), H358 [3]: 20.76%
- MI 7 (Maximum Inhibition Index), H358 [3]: 1.26
- GI % (Growth Inhibition Rate), H1573 [4]: 87.80%
- MI 4 (Maximum Inhibition Index), H1573 [4]: 8.20
- GI % (Growth Inhibition Rate), H2444 [5]: 87.22%
- MI 4 (Maximum Inhibition Index), H2444 [5]: 7.82
- GI % (Growth Inhibition Rate), H1588 [6]: 45.63%
- MI 4 (Maximum Inhibition Index), H1588 [6]: 1.84
- GI % (Growth Inhibition Rate), H2009 [7]: 65.93%
- MI 4 (Maximum Inhibition Index), H2009 [7]: 2.93
- GI % (Growth Inhibition Rate), H2030 [8]: 64.45%
- MI 7 (Maximum Inhibition Index), H2030 [8]: 2.81
- GI % (Growth Inhibition Rate), H2291 [9]: 75.62%
- MI 7 (Maximum Inhibition Index), H2291 [9]: 4.11
